What was measured:
[1] = system: Restless Leg Syndrome (RLS); conditions: cited from earlier work; for effectiveness in RLS / side effects: short-term therapy studies; for side effects: usually in the beginning and as a function of the dosage
[2] = system: patients suffering from moderate to very severe idiopathic Restless Leg Syndrome; assay: placebo-controlled, double-blind, randomized clinical test of rotigotine TTS in Restless Leg Syndrome patients; type: in vivo, human; conditions: for Reduction of the average IRLSSG Value as compared to Placebo Treatment by Day 8: 8 days treatment
Source text: The rotigotine TTS produced per one of the above implementation examples was investigated in placebo-controlled, double-blind, randomized clinical tests at several centers, covering in a study with triple-branched parallel groups 63 patients who were suffering from moderate to very severe idiopathic Restless Leg Syndrome conditions.
The average age of the patients was 58.3 years. Randomization in the three treatment groups in terms of gender, age and severity of prior illnesses was reasonably balanced.
Over a treatment period of eight (8) days the patients of one group were treated with 5 cm^2 TTS and the patients of another group were treated with 10 cm^2 TTS. For a comparison the patients in the placebo group were treated with a placebo TTS. Within 24 hours, each of the above-mentioned drug-containing TTS's released 2.25 mg and, respectively, 4.5 mg rotigotine to the patient concerned.
As a result of the prespecified primary effectiveness the activities of daily life and the motoricity had changed, based on the generally accepted rating scale of the International Restless Leg Syndrome Study Group (IRLSSG), from the initial value to that in the concluding treatment evaluation (8th day).
On the basis of 10 questions, the IRLSSG measures and rates the following clinical parameters in Restless Leg patients:
The overall IRLSSG rating is derived from the individual values as follows:
First, an initial starting value is determined for each patient participating in the study. This is done by adding up the individual IRLSSG parameter values as of Day 0, i.e. before the treatment. Over the course of the treatment the IRLSSG values are compared with the starting value and any changes from that starting value are recorded. Finally, the average improvement of the IRLSSG value as of Day 8 over the starting value is determined by calculating the average of all test subjects. The resulting value is called CAS—(complete analysis set) randomized average change from the starting value of the overall IRLSSG rating.
Patients suffering from the Restless Leg Syndrome have been known to display a relatively strong response to placebos, meaning that even when treated with placebos these Restless Leg Syndrome patients show a certain improvement of their IRLSSG values. It is therefore important to compare any effect of the drug treatment with the degree of the IRLSSG improvement obtained through placebo treatment over the same time period. Thus, the final assessment of the improvement takes into account the effect of a placebo treatment during the same time period.

CCCN(CCC)CCc1cccc2c1CC(=O)N2 [ropinirol]
effectiveness in RLS [1]: effective | side effects [1]: nausea, vomiting, dizziness, hypotension, constipation or insomnia

CC(C)C[C@H]1C(=O)N2CCC[C@H]2[C@]2(O)O[C@](NC(=O)[C@@H]3C=C4c5cccc6[nH]c(Br)c(c56)C[C@H]4N(C)C3)(C(C)C)C(=O)N12 [bromocriptine]
side effects [1]: nausea, vomiting, dizziness, hypotension, constipation or insomnia

Clc1cccc(Cl)c1NC1=NCCN1 [clonidine, 2-(2,6-dichloroanilino)-4,5-dihydroimidazol]
frequency of waking up ([1]; treatment of RLS): no effect | periodic leg movement during sleep (PLMS) ([1]; treatment of RLS): no effect | quality of sleep ([1]; treatment of RLS): no effect | soporiferous latency ([1]; treatment of RLS): reduced

CCN(CC)C(=O)N[C@H]1C=C2c3cccc4[nH]cc(c34)C[C@H]2N(C)C1 [lisuride]
effectiveness in RLS [1]: effective | side effects [1]: nausea, vomiting, dizziness, hypotension, constipation or insomnia

CCCN1C[C@H](CSC)C[C@@H]2c3cccc4[nH]cc(c34)C[C@H]21 [pergolide]
effectiveness in RLS [1]: effective | side effects [1]: nausea, vomiting, dizziness, hypotension, constipation or insomnia

C=CCN1C[C@H](C(=O)N(CCCN(C)C)C(=O)NCC)C[C@@H]2c3cccc4[nH]cc(c34)C[C@H]21 [cabergolin]
effectiveness in RLS [1]: effective | side effects [1]: nausea, vomiting, dizziness, hypotension, constipation or insomnia

CCCN[C@H]1CCc2nc(N)sc2C1 [pramipexol]
serious side effect ([1]; in vivo): Attacks of drowsiness | effectiveness in RLS [1]: effective | side effects [1]: nausea, vomiting, dizziness, hypotension, constipation or insomnia

N[C@@H](Cc1ccc(O)c(O)c1)C(=O)O [L-DOPA, levodopa]
effect on the disorder (RLS) ([1]; long-term therapy): clear mitigation of the disorder

CCCN(CCc1cccs1)[C@H]1CCc2c(O)cccc2C1 [Rotigotine, (-)-5,6,7,8-tetrahydro-6-[propyl [2-(2-thienyl)ethyl]amino]-1-naphtol]
Reduction of the average IRLSSG Value as compared to Placebo Treatment by Day 8 ([2]; 5 cm^2 TTS, 2.25 mg rotigotine per 24 hours, p (one side) 0.09): 3.6 | Reduction of the average IRLSSG Value as compared to Placebo Treatment by Day 8 ([2]; 10 cm^2 TTS, 4.5 mg rotigotine per 24 hours, p (one side) 0.04): 6.3 | skin reactions at the point of application ([2]; administered via the TTS): generally very minor | tolerability ([2]; administered via the TTS): generally well tolerated | tolerability ([2]; administered via the TTS, listed as rotigotine): well tolerated and safe | subjective symptoms (tingling, cramps and pain in the legs, restlessness during the night, difficulties falling or remaining asleep) ([2]; end of the 8-day treatment, both patient groups (5 cm^2 and 10 cm^2 TTS)): either disappeared or diminished to a tolerable minimum | daytime weariness, nausea, dizziness, vomiting, insomnia caused by the treatment ([2]; patient reports, as a function of the dose administered): did not or only to a very minimal extent cause | clinical improvement in patients in a moderate to severe stage of Restless Leg Syndrome ([2]; transdermally administered once daily): distinct clinical improvement

CC(C)C[C@H]1C(=O)N2CCC[C@H]2[C@]2(O)O[C@](NC(=O)[C@@H]3C[C@@H]4c5cccc6[nH]cc(c56)C[C@H]4N(C)C3)(C(C)C)C(=O)N12 [alpha dihydroergocryptine]
effectiveness in RLS [1]: effective | side effects [1]: nausea, vomiting, dizziness, hypotension, constipation or insomnia
